pIC50: −log10 of the molar value.
Assays:
ATXN2-luc [1] = assay: Secondary assays: ATXN2-luc in S2 and H2 cells, 12 doses, Bright-Glo; assay type: cell-based, human; conditions: summary data; for pIC50: ATXN2-luc luciferase assays in H2 and S2 cells, 12 doses plus a zero dose, read-out: Mean IC50; for min ATXN2-luc (%): minimum ATXN2-luc signal over 12 doses, H2 and S2 cells
Method: (§1) The values for H2 and S2 were used as replicates to calculate IC50s and to assess cell viability.
(§2) Compounds were plated at 2× concentrations in phenol red–free DMEM in 25 μl in 384-well plates with each compound dose plated in triplicate. An equal volume of S2, H2, or SC cells (24,000 cells/well) suspended in phenol red–free DMEM with 10% fetal bovine serum and 1× penicillin/streptomycin were added. Cells were grown 24 h and then assayed first by using the CellTiter-Fluor reagent (20 μl) followed by the addition of Bright-Glo (65 μl) luciferase assay, using a multimode plate reader (Beckman; DT880). Values were reported as the mean ± SD with n = 3. IC50s were determined by the Hill coefficient method using an online tool (https://www.aatbio.com/tools/ic50-calculator).

S2, H2 or SC cells = assay: Secondary assays: multiplexed cell viability (CellTiter-Fluor)
Method: as §1, §2

CMV-luc = assay: Secondary assays: CMV-luc in SC cells, Bright-Glo; assay type: cell-based, human; conditions: minimum CMV-luc signal in SC cells over 12 doses; summary data
Method: as §2

H2 and S1 cells = assay: Paired MTT viability assay, average of H2 and S1 cells (1 and 10 uM); assay type: cell-based, human; parameters: H2&S1 ave MTT 1uM / H2&S1 ave MTT 10uM: unit not given here; conditions: for H2&S1 ave MTT 1uM: 1 uM compound; for H2&S1 ave MTT 10uM: 10 uM compound
Excerpt: (§3) Supplement mmc2.xlsx, sheet "43 annotated compounds"

ATXN2-luc [2] = assay: MSSR hit retest: ATXN2-luc luciferase assay, average of H2 and S1 cells (1 and 10 uM); assay type: cell-based, human; parameters: H2&S1 ave luc 1uM / H2&S1 ave luc 10uM: scale not given here; conditions: for H2&S1 ave luc 1uM: 1 uM compound; for H2&S1 ave luc 1uM / H2&S1 ave luc 10uM: average of H2 and S1 cells; for H2&S1 ave luc 10uM: head line r3 10uM, head line r4 20 uM compound
Excerpt: as §3

ATXN2-luc [3] = assay: MSSR pilot screen: ATXN2-luc luciferase assay (Bright-Glo) in H2 cells, single 10 μM dose; assay type: cell-based, human; conditions: for SD from mean (ATXN2-luc, Z-score): H2 cells, single dose (title: 10 μM compound), overnight; for ¦Score/1SD¦: absolute score divided by 1SD (0.891 or 0.9)
ATXN2-luc [4] = assay: MSSR hit retest / multiconcentration testing: ATXN2-luc luciferase assay in H2 cells (1 and 10 μM); assay type: cell-based, human; conditions: for H2&S1 ave luc 1uM: 1 uM compound; for H2&S1 ave luc 10uM: 10 uM compound
[5] = minimum viability, multiplexed CellTiter-Fluor, over 12 doses, summary data
[6] = pilot screen, H2 cells expressing ATXN2-luc, single dose printed as 10 μM compound
[7] = luciferase assay, average of H2 and S1 cells (both ATXN2-luc), rescreen from plated libraries
[8] = pilot screen at 10 µM compound, H2 cells expressing ATXN2-luc
[9] = luciferase, average of H2 and S1 cells expressing ATXN2-luc, rescreen

Row | Molecule | pIC50 (ATXN2-luc [1]) | min ATXN2-luc (%) (ATXN2-luc [1]) | min viability (%) (S2, H2 or SC cells; [5]) | min SC luc (%) (CMV-luc) | min viability (%) (S2, H2 or SC cells) | also measured
1 | S=C(NCCCN1CCOCC1)N1CCN(c2nc(-c3ccccc3)cs2)CC1 [MLS000706289-02] | 5.16 | 61.6491% | 89.1129% | 79.3012% |  | 
2 | Nc1ncnc2c1c(-c1cnc3[nH]ccc3c1)nn2C1CCCC1 [NCGC00346619-01, PP121] | 5.38 | 27.4759% | 50.3878% | 78.0969% |  | 
3 | O=C(O)c1ccc2c(c1)nc(Nc1cccc(Cl)c1)c1ccncc12 [NCGC00263192-02] | 4.99 | 45.6416% |  | 93.7801% | 77.6315% | 
4 | CN(c1ncccc1CNc1nc(Nc2ccc3c(c2)CC(=O)N3)ncc1C(F)(F)F)S(C)(=O)=O [NCGC00242495-01, PF-00562271] | 5.63 | 15.5052% | 64.5946% | 98.3015% |  | 
5 | Clc1ccc(C[n+]2cc(-c3ccccc3)n3c2CCCCC3)c(Cl)c1.[Br-] [MLS000420216-02] | 5.09 | 56.4685% | 84.5162% | 72.1585% |  | 
6 | CCNC(=O)c1noc(-c2cc(C(C)C)c(O)cc2O)c1-c1ccc(CN2CCOCC2)cc1 [NCGC00247878-01] | 7.36 | 17.8831% | 94.6315% | 63.2542% |  | 
7 | C[C@@H]1CCC/C=C\[C@H]2C[C@H](O)C[C@@H]2[C@H](O)/C=C\C(=O)O1 [NCGC00017254-02, (+)-Brefeldin A] | 5.54 | 44.7226% | 72.9816% | 84.381% |  | 
8 | CCc1c(O)cc(O)c(C(=O)c2ccc(OCCN3CCOCC3)c(OC)c2)c1CC(=O)N(CCOC)CCOC [NCGC00346685-01, KW-2478] | 6.23 | 23.9372% |  | 105.888% | 97.6731% | 
9 | Cc1cccc(Nc2nc(N[C@@H]3CCCC[C@H]3N)ncc2C(N)=O)c1 [NCGC00253909-01] | 4.60 | 64.2535% |  | 86.8204% | 94.6197% | 
10 | C[C@@]12OC(=O)[C@]1([C@@H](O)[C@@H]1C=CCCC1)NC(=O)[C@H]2CCCl [NCGC00344630-01] | 5.95 | 16.5036% | 75.9573% | 96.8804% |  | 
11 | C[C@@H](Oc1ccc2[nH]nc(C=Cc3cnn(CCO)c3)c2c1)c1c(Cl)cncc1Cl [NCGC00346459-01] | 5.86 | 15.2562% | 66.1226% | 64.272% |  | 
12 | CC(C)c1cc(-c2n[nH]c(=O)n2-c2ccc3c(ccn3C)c2)c(O)cc1O [NCGC00346678-01] | 7.52 | 17.7351% | 77.8152% | 55.4123% |  | 
13 | Cn1cc(-c2cnn3c(N)c(Br)c([C@H]4CCCNC4)nc23)cn1 [NCGC00346653-01] | 6.41 | 25.4941% | 87.0431% | 91.5137% |  | 
14 | Cc1cnc(NC(=O)CN2CCN(c3ccccn3)CC2)s1 [MLS000035284-02] | 4.89 | 38.5658% | 76.8459% | 4.094% |  | 
15 | CCNC(=O)c1cc2c(-c3cc(OCCN4CCCC4)c(Cl)cc3Cl)nc(N)nc2s1 [NCGC00247879-01, NVP-BEP800] | 5.75 | 22.6428% |  | 85.4541% | 89.936% | 
16 | Oc1ccc(-c2ccc(-c3cc(Nc4cccc(CNC5CC5)c4)n[nH]3)cc2)c(O)c1 [NCGC00346954-01] | 6.26 | 20.2623% |  | 54.3112% | 61.7259% | 
17 | COc1c(C)cnc(Cn2cnc3c(Cl)nc(N)nc32)c1C [NCGC00247877-01] | 6.48 | 17.8512% |  | 68.1668% | 91.8481% | 
18 | Cc1ccc2nc(NCCN)c3ncc(C)n3c2c1 [NCGC00165761-02] | 5.39 | 20.5589% |  | 96.0167% | 77.5673% | 
19 | CCC(=C/[C@H](C)C/C=C/C(C)=C/[C@@H](C)C(=O)[C@@H](C)[C@H](O)[C@@H](C)C/C(C)=C/C(=O)O)/C=C/[C@@H]1OC(=O)C=C[C@@H]1C [NCGC00162440-02] | 7.32 | 28.333% | 65.4242% | 90.0621% |  | 
20 | Cyanocobalamin |  |  |  |  |  | H2&S1 ave MTT 1uM (H2 and S1 cells): 151.543; H2&S1 ave MTT 10uM (H2 and S1 cells): 134.855; H2&S1 ave luc 1uM (ATXN2-luc [2]): 110; H2&S1 ave luc 10uM (ATXN2-luc [2]): 140; SD from mean (ATXN2-luc, Z-score) (ATXN2-luc [3]): -2.681 SD; SD from mean (pilot screen) (ATXN2-luc [3]; pilot screen): -2.681 SD; SD from mean (pilot screen) (ATXN2-luc [3]; [6]): -2.681; ¦Score/1SD¦ (ATXN2-luc [3]; pilot screen): 3.01; H2&S1 ave luc 1uM (ATXN2-luc [4]; [7]): 110; H2&S1 ave luc 10uM (ATXN2-luc [4]; [7]): 140
21 | O=c1[nH]c2ccc(Cl)cc2c(N[C@@H]2CN3CCC2CC3)c1-c1nc2ccccc2[nH]1 [NCGC00346626-01, CHIR-124] | 6.66 | 17.9767% | 75.0552% | 69.3978% |  | 
22 | C=CCNc1c(O)cc2c(O)c1C[C@@H](C)C[C@H](OC)[C@@H](O)[C@@H](C)C=C(C)[C@H](OC(N)=O)[C@@H](OC)C=CC=C(C)C(=O)N2 [NCGC00346438-01] | 6.26 | 24.2069% |  | 94.9947% | 91.4914% | 
23 | CC(C)c1cc(/C=C(\C#N)C(=O)NCCCc2ccccc2)cc(C(C)C)c1O [SU1498] |  |  |  |  |  | H2&S1 ave MTT 1uM (H2 and S1 cells): 86.0811; H2&S1 ave MTT 10uM (H2 and S1 cells): 61.708; H2&S1 ave luc 1uM (ATXN2-luc [2]): 22; H2&S1 ave luc 10uM (ATXN2-luc [2]): 15; SD from mean (ATXN2-luc, Z-score) (ATXN2-luc [3]): -4.885 SD; SD from mean (pilot screen) (ATXN2-luc [3]; pilot screen): -4.885 SD; SD from mean (pilot screen) (ATXN2-luc [3]; [8]): -4.885; ¦Score/1SD¦ (ATXN2-luc [3]; pilot screen): 5.48; H2&S1 ave luc 1uM (ATXN2-luc [4]; [9]): 22; H2&S1 ave luc 10uM (ATXN2-luc [4]; [9]): 15
24 | CNC1CC(c2ccc(Cl)c(Cl)c2)c2ccccc21 (stereo not drawn) [Indatraline] |  |  |  |  |  | viability at 1 µM (H2 and S1 cells; Homo sapiens, read-out: H2&S1 ave MTT 1uM, 1 uM compound): 117%; viability at 10 µM (H2 and S1 cells; Homo sapiens, read-out: H2&S1 ave MTT 10uM, 10 uM compound): 13.5%; activity at 1 µM (ATXN2-luc [2]; Homo sapiens, read-out: H2&S1 ave luc 1uM): 107%; activity (ATXN2-luc [2]; Homo sapiens, read-out: H2&S1 ave luc 10uM): 5.53%; SD from mean (pilot screen) (ATXN2-luc [3]; pilot screen): -3.071 SD; SD from mean (pilot screen) (ATXN2-luc [3]; [6]): -3.071; ¦Score/1SD¦ (ATXN2-luc [3]; pilot screen): 3.41; H2&S1 ave luc 1uM (ATXN2-luc [4]; [7]): 107
25 | C1CCC(N=C(NC23CC4CC(CC(C4)C2)C3)N2CCOCC2)CC1.Cl [U-37883A] |  |  |  |  |  | H2&S1 ave MTT 1uM (H2 and S1 cells): 105.463; H2&S1 ave MTT 10uM (H2 and S1 cells): 56.7572; H2&S1 ave luc 1uM (ATXN2-luc [2]): 94; H2&S1 ave luc 10uM (ATXN2-luc [2]): 17; SD from mean (ATXN2-luc, Z-score) (ATXN2-luc [3]): -4.965 SD; SD from mean (pilot screen) (ATXN2-luc [3]; pilot screen): -4.965 SD; SD from mean (pilot screen) (ATXN2-luc [3]; [8]): -4.965; ¦Score/1SD¦ (ATXN2-luc [3]; pilot screen): 5.57; H2&S1 ave luc 1uM (ATXN2-luc [4]; [9]): 94; H2&S1 ave luc 10uM (ATXN2-luc [4]; [9]): 17
26 | COc1ccc(CCCOC(Cn2ccnc2)c2ccc(OC)cc2)cc1 (stereo not drawn) [SKF-96365] |  |  |  |  |  | H2&S1 ave MTT 1uM (H2 and S1 cells): 115.609; H2&S1 ave MTT 10uM (H2 and S1 cells): 90.0391; H2&S1 ave luc 1uM (ATXN2-luc [2]): 104; H2&S1 ave luc 10uM (ATXN2-luc [2]): 57; SD from mean (ATXN2-luc, Z-score) (ATXN2-luc [3]): -2.721 SD; SD from mean (pilot screen) (ATXN2-luc [3]; pilot screen): -2.721 SD; SD from mean (pilot screen) (ATXN2-luc [3]; [6]): -2.721; ¦Score/1SD¦ (ATXN2-luc [3]; pilot screen): 3.05; H2&S1 ave luc 1uM (ATXN2-luc [4]; [7]): 104; H2&S1 ave luc 10uM (ATXN2-luc [4]; [7]): 57

From publication PMC9356275, “A quantitative high-throughput screen identifies compounds that lower expression of the SCA2-and ALS-associated gene ATXN2” (The Journal of Biological Chemistry, 2022)
